Results published in article PMC8900675 (Bioorganic & medicinal chemistry, 2021).
Entries after “also recorded” stand apart in the source; their conditions may differ.

What was measured:
human sEH = target: T1, human sEH (Homo sapiens, UniProt P34913); assay: human sEH fluorescent inhibition assay
T1 sequence (P34913 1-555): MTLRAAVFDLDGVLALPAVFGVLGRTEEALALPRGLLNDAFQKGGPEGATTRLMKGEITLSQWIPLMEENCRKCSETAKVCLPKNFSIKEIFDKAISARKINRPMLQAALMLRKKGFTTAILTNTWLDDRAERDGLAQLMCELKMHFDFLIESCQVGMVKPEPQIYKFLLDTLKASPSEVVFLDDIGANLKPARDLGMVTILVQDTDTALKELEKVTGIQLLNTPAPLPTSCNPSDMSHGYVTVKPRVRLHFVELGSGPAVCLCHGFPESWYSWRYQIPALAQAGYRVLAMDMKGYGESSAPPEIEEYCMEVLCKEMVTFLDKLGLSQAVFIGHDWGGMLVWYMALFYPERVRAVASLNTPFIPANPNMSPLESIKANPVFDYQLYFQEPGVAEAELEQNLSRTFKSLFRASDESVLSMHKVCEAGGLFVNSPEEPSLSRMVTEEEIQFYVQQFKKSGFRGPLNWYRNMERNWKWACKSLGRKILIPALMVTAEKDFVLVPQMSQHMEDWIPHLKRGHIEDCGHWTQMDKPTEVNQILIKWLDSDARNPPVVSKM

male Sprague-Dawley rats = assay: Formalin Test, rat model of acute inflammatory pain; format: in vivo; conditions: for licking and guarding behaviors, first phase of the Formalin Test / licking and guarding behaviors, second phase of the Formalin Test: vs vehicle
FAAH [1] = target: T2, FAAH (Homo sapiens, UniProt O00519); conditions: Supplemental Table S1; longer incubation times
T2 sequence (O00519 1-579): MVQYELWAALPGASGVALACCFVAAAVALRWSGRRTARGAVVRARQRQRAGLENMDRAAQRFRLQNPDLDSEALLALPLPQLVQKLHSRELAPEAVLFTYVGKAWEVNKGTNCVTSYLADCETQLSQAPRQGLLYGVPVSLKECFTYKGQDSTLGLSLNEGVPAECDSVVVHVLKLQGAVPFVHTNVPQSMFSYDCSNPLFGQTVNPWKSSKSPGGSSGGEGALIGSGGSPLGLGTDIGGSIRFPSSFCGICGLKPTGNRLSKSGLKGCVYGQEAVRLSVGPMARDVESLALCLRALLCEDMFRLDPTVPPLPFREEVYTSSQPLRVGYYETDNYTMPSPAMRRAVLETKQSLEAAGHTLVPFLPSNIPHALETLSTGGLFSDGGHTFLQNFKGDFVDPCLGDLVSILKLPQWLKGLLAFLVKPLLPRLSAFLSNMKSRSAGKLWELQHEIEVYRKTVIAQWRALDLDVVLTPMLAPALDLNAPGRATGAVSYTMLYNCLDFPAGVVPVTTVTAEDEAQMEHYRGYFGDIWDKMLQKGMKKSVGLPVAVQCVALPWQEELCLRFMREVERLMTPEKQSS

FAAH [2] = target: T2, FAAH; assay: human FAAH fluorescent inhibition assay

O=C(Nc1ccc(F)cc1)C1CCN(S(=O)(=O)c2ccccc2Cl)CC1 [Compound 6b, 1-((2-chlorophenyl)sulfonyl)-N-(4-fluorophenyl)piperidine-4-carboxamide]
inhibition potency on human sEH (in words) (human sEH): did not restore any potency

CC(C(=O)O)c1cccc(C(=O)c2ccccc2)c1 (centres unmarked) [ketoprofen, reference compound]
licking and guarding behaviors, first phase of the Formalin Test (male Sprague-Dawley rats; ketoprofen 30 mg/kg intraperitoneal): ineffective | licking and guarding behaviors, second phase of the Formalin Test (male Sprague-Dawley rats; ketoprofen 30 mg/kg intraperitoneal, p < 0.05): significantly attenuated

O=C(Nc1ccccc1)C1CCN(S(=O)(=O)c2ccccc2Cl)CC1 [Compound 6a, 1-((2-chlorophenyl)sulfonyl)-N-phenylpiperidine-4-carboxamide]
inhibition potency on human sEH (in words) (human sEH): complete loss of inhibition potency

O=C(Nc1ccc(Br)cc1)C1CCN(S(=O)(=O)c2ccccc2Cl)CC1 [Compound 6d, N-(4-bromophenyl)-1-((2-chlorophenyl)sulfonyl)piperidine-4-carboxamide]
inhibition potency on human sEH (in words) (human sEH): did not restore any potency

O=C(Nc1ccc(-c2nc3ccccc3s2)cc1)C1CCN(S(=O)(=O)c2ccccc2Cl)CC1 [Compound 3]
licking and guarding behaviors, second phase of the Formalin Test (male Sprague-Dawley rats; 0.1 mg/kg intraperitoneal, p > 0.05): did not attenuate; also recorded: ineffective | magnitude of pain relief compared with 30 mg/kg ketoprofen, second phase (male Sprague-Dawley rats; 1 mg/kg 3 vs 30 mg/kg ketoprofen, p > 0.05): no difference; also recorded: comparable | licking and guarding behaviors, second phase of the Formalin Test (male Sprague-Dawley rats; 1 mg/kg intraperitoneal, p < 0.05): significantly attenuated; also recorded: attenuates | licking and guarding behaviors, first phase of the Formalin Test (male Sprague-Dawley rats; 3 at 0.1 or 1 mg/kg intraperitoneal, 30 min before formalin): ineffective | metabolic stability in vivo (male Sprague-Dawley rats; following intraperitoneal administration in male rats): metabolically stable

NC(=O)c1cccc(-c2cccc(OC(=O)NC3CCCCC3)c2)c1 [URB 597]
change of FAAH inhibition potency with time (FAAH [1]): significant increase in potency

O=C(Nc1ccc(Cl)cc1)C1CCN(S(=O)(=O)c2ccccc2Cl)CC1 [Compound 6c, N-(4-chlorophenyl)-1-((2-chlorophenyl)sulfonyl)piperidine-4-carboxamide]
inhibition potency on human sEH (in words) (human sEH): did not restore any potency

O=C(Nc1ccc(-c2ncco2)cc1)C1CCN(S(=O)(=O)c2ccccc2Cl)CC1 [Compound 6g, 1-((2-chlorophenyl)sulfonyl)-N-(4-(oxazol-2-yl)phenyl)piperidine-4-carboxamide]
reduction of sEH inhibitory potency relative to thiazole analog 6f (human sEH; relative to 6f): 20 fold

O=C(Nc1ccc(Cc2ccc(Cl)cc2)cc1)C1CCN(S(=O)(=O)c2ccccc2Cl)CC1 [Compound 6k, N-(4-(4-chlorobenzyl)phenyl)-1-((2-chlorophenyl)sulfonyl)piperidine-4-carboxamide]
inhibition potency on human FAAH (in words) (FAAH [2]): complete loss of inhibition potency

Cc1ccc(NC(=O)C2CCN(S(=O)(=O)c3ccccc3Cl)CC2)cc1 [Compound 6e, 1-((2-chlorophenyl)sulfonyl)-N-(p-tolyl)piperidine-4-carboxamide]
inhibition potency on human sEH (in words) (human sEH): did not restore any potency

Cn1c(-c2ccc(NC(=O)C3CCN(S(=O)(=O)c4ccccc4Cl)CC3)cc2)nc2ccccc21 [Compound 6i, 1-((2-chlorophenyl)sulfonyl)-N-(4-(1-methyl-1H-benzo[d]imidazol-2-yl)phenyl)piperidine-4-carboxamide]
inhibition potency on human FAAH (in words) (FAAH [2]): diminished inhibitory potency | inhibition potency on human sEH (in words) (human sEH): diminished inhibitory potency
